Structures can show the parent of a compound that is named as a salt.
Key:
Type in all cases: biochemical
[1] = biological target: T1, JAK3 (Homo sapiens, UniProt P52333); test: JAK3 inhibition (Table 4); conditions: read-out: JAK3 Ki
T1 construct: made in house; host or cells: SF9 insect cells (baculovirus)

[2] = biological target: T2, TYK2 (Homo sapiens, UniProt P29597); test: TYK2 inhibition (Table 4)
T2 construct: made in house; host or cells: SF9 insect cells (baculovirus)
T2 sequence (P29597 873-1187): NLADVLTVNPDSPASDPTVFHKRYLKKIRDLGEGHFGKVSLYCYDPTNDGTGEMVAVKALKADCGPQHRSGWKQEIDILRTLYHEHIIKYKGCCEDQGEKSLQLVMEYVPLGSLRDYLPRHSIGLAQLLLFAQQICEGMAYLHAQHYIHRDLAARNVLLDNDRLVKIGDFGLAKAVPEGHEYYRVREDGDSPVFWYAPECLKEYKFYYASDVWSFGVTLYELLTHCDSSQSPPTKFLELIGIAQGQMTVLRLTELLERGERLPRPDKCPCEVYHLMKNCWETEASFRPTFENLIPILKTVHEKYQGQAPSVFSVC

[3] = biological target: T3, JAK2 (Homo sapiens, UniProt O60674); test: JAK2 inhibition (Table 4); conditions: read-out: JAK2 Ki
T3 construct: made in house; host or cells: SF9 insect cells (baculovirus)

[4] = biological target: T4, JAK1 (Homo sapiens, UniProt P23458); test: JAK1 inhibition (Table 4); conditions: read-out: JAK1 Ki
T4 construct: made in house; host or cells: SF9 insect cells (baculovirus)
T4 sequence (P23458 852-1154): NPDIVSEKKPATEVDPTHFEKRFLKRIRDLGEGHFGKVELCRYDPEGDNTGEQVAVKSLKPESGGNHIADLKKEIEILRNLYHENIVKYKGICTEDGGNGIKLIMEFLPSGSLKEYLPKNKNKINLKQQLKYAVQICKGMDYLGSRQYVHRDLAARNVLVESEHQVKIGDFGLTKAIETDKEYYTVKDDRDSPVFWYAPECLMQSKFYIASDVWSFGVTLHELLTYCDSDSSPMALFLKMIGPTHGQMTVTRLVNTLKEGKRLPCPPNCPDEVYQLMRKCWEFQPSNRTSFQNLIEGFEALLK

T1 sequence (P52333 783-1124): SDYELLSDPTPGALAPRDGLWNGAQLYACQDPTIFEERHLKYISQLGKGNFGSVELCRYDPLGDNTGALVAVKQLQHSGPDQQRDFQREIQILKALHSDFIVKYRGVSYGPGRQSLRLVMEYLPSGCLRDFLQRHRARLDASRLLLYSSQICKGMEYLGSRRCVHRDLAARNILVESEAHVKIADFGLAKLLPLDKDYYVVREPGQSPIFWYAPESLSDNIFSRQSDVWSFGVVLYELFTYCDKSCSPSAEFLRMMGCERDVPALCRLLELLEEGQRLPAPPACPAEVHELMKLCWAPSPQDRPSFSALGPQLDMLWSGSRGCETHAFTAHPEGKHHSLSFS
T3 sequence (O60674 812-1132): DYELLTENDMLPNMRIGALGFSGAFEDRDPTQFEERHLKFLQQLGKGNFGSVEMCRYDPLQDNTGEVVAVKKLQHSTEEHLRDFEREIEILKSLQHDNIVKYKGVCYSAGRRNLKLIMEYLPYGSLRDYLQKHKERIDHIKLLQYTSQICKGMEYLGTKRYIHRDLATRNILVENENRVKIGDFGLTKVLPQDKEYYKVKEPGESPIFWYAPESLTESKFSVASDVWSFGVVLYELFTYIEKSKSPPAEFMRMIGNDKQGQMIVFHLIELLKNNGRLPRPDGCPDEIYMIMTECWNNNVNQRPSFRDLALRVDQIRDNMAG

| Compound | Ki [1] [nM] | Ki [2] [nM] | Ki [3] [nM] | Ki [4] [nM] |
| --- | --- | --- | --- | --- |
| CC(=O)NCCOC(=O)N[C@H]1CC[C@H](n2cnc3cnc4[nH]ccc4c32)CC1 [Example 599, Trans[4-(6H-1,2,3,5,6-tetraaza-as-indacen-1-yl)-cyclohexyl]-carbamic acid 2-acetylamino-ethyl ester] | 186 | 120 | 26.4 | 7.68 |
| COC(=O)N[C@H]1CC[C@H](n2c(CO)nc3cnc4[nH]ccc4c32)CC1 [Example 600, Trans[4-(2-hydroxymethyl-6H-1,2,3,5,6-tetraaza-as-indacen-1-yl)-cyclohexyl]-carbamic acid methyl ester] | 172 | 20.8 | 23.2 | 2.73 |
| CN(C)C(=O)N[C@H]1CC[C@H](n2cnc3cnc4[nH]ccc4c32)CC1 [Example 603, Trans 1,1-dimethyl-3-[4-(6H-1,2,3,5,6-tetraaza-as-indacen-1-yl)-cyclohexyl]-urea] | 237 | 87 | 20.8 | 9.76 |
| Cc1nc2cnc3[nH]ccc3c2n1[C@H]1CC[C@H](NC(=O)N(C)C)CC1 [Example 604, Trans 1,1-dimethyl-3-[4-(2-methyl-6H-1,2,3,5,6-tetraaza-as-indacen-1-yl)-cyclohexyl]-urea] | 249 | 244 | 46 | 16.4 |
| COC(=O)N(C)[C@H]1CC[C@H](n2c(CO)nc3cnc4[nH]ccc4c32)CC1 [Example 606, Trans[4-(2-hydroxymethyl-6H-1,2,3,5,6-tetraaza-as-indacen-1-yl)-cyclohexyl]-methyl-carbamic acid methyl ester] | 455 | 112 | 65.2 | 28.8 |
| C[C@@H](O)c1nc2cnc3[nH]ccc3c2n1[C@H]1CC[C@H](OC(=O)N(C)C)CC1 [Example 609, Trans dimethyl-carbamic acid 4-[2-((R)-1-hydroxy-ethyl)-6H-1,2,3,5,6-tetraaza-as-indacen-1-yl]-cyclohexyl ester] | 701 | 910 | 641 | 96.7 |

Now those with a lower Ki [1], led by results:

| Ki [1] [nM] | Ki [2] [nM] | Ki [3] [nM] | Ki [4] [nM] | Compound |
| --- | --- | --- | --- | --- |
| 158 | 182 | 12.4 | 17.8 | CNC(=O)N(C)[C@H]1CC[C@H](n2c(C)nc3cnc4[nH]ccc4c32)CC1 [Example 608, Trans 1,3-dimethyl-1-[4-(2-methyl-6H-1,2,3,5,6-tetraaza-as-indacen-1-yl)-cyclohexyl]-urea] |
| 152 | 129 | 43.1 | 15.2 | Cc1nc2cnc3[nH]ccc3c2n1[C@H]1CC[C@H](OC(=O)N(C)C)CC1 [Example 605, Trans dimethyl-carbamic acid 4-(2-methyl-6H-1,2,3,5,6-tetraaza-as-indacen-1-yl)-cyclohexyl ester] |
| 111 | 149 | 57.1 | 3.89 | O=C(N[C@H]1CC[C@H](n2c(CO)nc3cnc4[nH]ccc4c32)CC1)OCC1CC1 [Example 601, Trans[4-(2-hydroxymethyl-6H-1,2,3,5,6-tetraaza-as-indacen-1-yl)-cyclohexyl]-carbamic acid cyclopropylmethyl ester] |
| 96.8 | 185 | 28.9 | 10.4 | COCCNC(=O)O[C@H]1CC[C@H](n2cnc3cnc4[nH]ccc4c32)CC1 [Example 595, Trans (2-methoxy-ethyl)-carbamic acid 4-(6H-1,2,3,5,6-tetraaza-as-indacen-1-yl)-cyclohexyl ester] |
| 56.7 | 12.7 | 2.41 | 1.67 | O=C1OC(CO)CN1[C@H]1CC[C@H](n2cnc3cnc4[nH]ccc4c32)CC1 (stereo partly drawn) [Example 602, Trans 5-hydroxymethyl-3-[4-(6H-1,2,3,5,6-tetraaza-as-indacen-1-yl)-cyclohexyl]-oxazolidin-2-one] |
| 12.1 | 45.5 | 8.34 | 7.31 | Cc1nc2cnc3[nH]ccc3c2n1[C@H]1CC[C@H](N2CCNC2=O)CC1 [Example 598, Trans 1-[4-(2-methyl-6H-1,2,3,5,6-tetraaza-as-indacen-1-yl)-cyclohexyl]-imidazolidin-2-one formic acid salt] |
| 11.2 | 23.1 | 4.46 | 0.6 | Cc1nc2cnc3[nH]ccc3c2n1[C@H]1CC[C@H](NC(=O)OCC(F)F)CC1 [Example 607, Trans[4-(2-methyl-6H-1,2,3,5,6-tetraaza-as-indacen-1-yl)-cyclohexyl]-carbamic acid 2,2-difluoro-ethyl ester] |
